Reference: patent US11103510B2, “JAK1 pathway inhibitors for the treatment of cytokine-related disorders” (Incyte Corporation, priority 2018, dated 2021)

Columns and labels:
[1] = molecular target: human JAK1 (a.a. 837-1142) (Homo sapiens, UniProt P23458); test: In vitro JAK kinase assay (HTRF), JAK1; type: biochemical; conditions: 1 mM ATP
Method: (§1) The catalytic activity of JAK1, JAK2 or JAK3 was assayed by measuring the phosphorylation of a biotinylated peptide. The phosphorylated peptide was detected by homogenous time resolved fluorescence (HTRF). […] Reactions are carried out at room temperature for 1 hour and then stopped with 20 μL 45 mM EDTA, 300 nM SA-APC, 6 nM Eu-Py20 in assay buffer (Perkin Elmer, Boston, Mass.). Binding to the Europium labeled antibody takes place for 40 minutes and HTRF signal was measured on a Fusion plate reader (Perkin Elmer, Boston, Mass.).

[2] = molecular target: human JAK2 (a.a. 828-1132) (Homo sapiens (Human), UniProt O60674); test: In vitro JAK kinase assay (HTRF), JAK2, for JAK2/JAK1 ratio; type: biochemical; conditions: IC50 ratio, 1 mM ATP
Method: as §1

[3] = test system: anti-CD3 antibody-induced cytokine release syndrome (CRS) in BALB/c mice; test: Anti-CD3 antibody-induced cytokine release syndrome in BALB/c mice; type: in vivo; conditions: 60 and 120 mg/kg PO 1 h before anti-CD3 (10 μg IV); plasma 1.5 h after anti-CD3; FIG. 1
Text: JAK1 pathway inhibitors can be tested for efficacy against CRS according to an in vivo assay described in Ferran, C. et al. Clin. Exp. Immunol. 1991, 86, 537-543. Specifically, this study can test the ability of a compound to reduce or ameliorate anti-CD3 antibody-induced cytokine release syndrome (CRS) in BALB/c mice. The antibody, clone 145-2C11, is an immunoglobin G (IgG) hamster MoAb that is specific for the ε chain of the CD3 murine molecule (Léo, O. et al., Proc. Natl. Acad. Sci. USA, 1987, […], 1374). Treatment with 145-2C11 induces high affinity IL-2 receptors at the surface of spleen T-cells and results in a release of some cytokines such as tumor necrosis factor (TNF-α), IL-2, IL-3, IL-6, and interferon-gamma (IFN-γ) (Ferran, et al. Eur. J. Immunol. 1990, 20, 509-515 and Algre, M. et al., Eur. J. Immunol., 1990, 707). […]
The main objective of this study was to test the ability of a JAK1 pathway inhibitor (e.g., Compound 1) to reduce or ameliorate anti-CD3 antibody-induced cytokine release syndrome (CRS) in BALB/c mice. […] Animals were weighed prior to test article dosing, and monitored for the duration of the experiment. […]
After the administration of the anti-CD3 antibody, animals were closely monitored for signs of distress due to the resulting systemic inflammatory response. […]

[4] = test system: Con A-induced cytokine release syndrome (CRS) in BALB/c mice; test: Concanavalin A induced cytokine release syndrome in BALB/c mice; type: in vivo; conditions: plasma 2 h after Con A
Text: Concanavalin A (Con A) is a selective T lymphocyte mitogen resulting in broad inflammatory cytokine release and proliferation of CD4 and CD8 T-cells. Injection of Con-A has been shown in the literature to induce cytokine release syndrome and serves as a model with which to test the efficacy of cytokine release syndrome therapies (Gantner, F. at al. Hepatology, 1995, 21, 190-198). The mitogen response is dependent on expression of the T-cell receptor.
In particular, this study tests the ability of a selective JAK1 inhibitor (e.g., Compound 1, Table 1) to reduce or ameliorate Con A-induced cytokine release syndrome (CRS) in BALB/c mice. A total of forty (40) BALB/c mice were used for this one day study. Animals were weighed prior to test article dosing, and monitored for the duration of the experiment. On day 0, Sixty (60) minutes prior to Con A administration, vehicle (0.5% methylcellulose) or Compound 1 (60 and 120 mg/kg) was given in a single dose via oral gavage (PO) to animals in groups 2-4 as detailed in Table 2A. Group 1 served as naïve controls and were not treated. Following the […] pre-treatment with vehicle or Compound 1, animals in Groups 2-4 were administered 20 mg/kg of Con A via intravenous injection (IV) in order to induce CRS. All animals were euthanized via CO2 inhalation two hours after Con A administration. Whole blood was collected via cardiac puncture into K2EDTA tubes and stored on ice until plasma processing occurs. Plasma was collected and stored at −80° C. until cytokine multiplex was performed.
Animals were weighed and Con-A dose (20 mg/kg) calculated.
Vehicle and Compound 1 were prepared at corresponding doses.
On day 0, animals were dosed with vehicle or Compound 1, as in Table 2A. Group 1 served as the naïve controls and were not treated. Group 2 received a single dose of vehicle (0.5% methylcellulose) via PO at 0.1 mL/20 g. Group 3 received a single dose of 60 mg/kg Compound 1 via PO at 0.1 mL/20 g. Group 4 received a single dose of 120 mg/kg Compound 1 via PO at 0.1 mL/20 g.
Sixty (60) minutes after test article administration, Con-A was administered via IV injection to Groups 2-4. Each animal in Groups 2-4 received 20 mg/kg of Con-A in 0.2 mL.
After the administration of Con-A, animals were closely monitored for signs of distress due to the resulting systemic inflammatory response.
Two hours after Con-A administration all animals were euthanized by CO2 inhalation.
Upon sacrifice, whole blood was collected from each animal via cardiac puncture into K2EDTA tubes. The blood was centrifuged and the plasma collected in cryovials. The plasma was frozen and stored at −80° C. for the downstream cytokine multiplex assay.
Plasma samples are thawed on ice and used for a cytokine multiplex according to the manufacturer's protocol (ThermoFisher).
An unpaired one-way analysis of variance (ANOVA) incorporating Sidak's multiple test comparison was performed using GraphPad Prism (version 4.00; GraphPad Software, San Diego Calif., USA). A value of p<0.05 was considered significant.

human JAK2 (a.a. 828-1132), sequence (O60674 828-1132): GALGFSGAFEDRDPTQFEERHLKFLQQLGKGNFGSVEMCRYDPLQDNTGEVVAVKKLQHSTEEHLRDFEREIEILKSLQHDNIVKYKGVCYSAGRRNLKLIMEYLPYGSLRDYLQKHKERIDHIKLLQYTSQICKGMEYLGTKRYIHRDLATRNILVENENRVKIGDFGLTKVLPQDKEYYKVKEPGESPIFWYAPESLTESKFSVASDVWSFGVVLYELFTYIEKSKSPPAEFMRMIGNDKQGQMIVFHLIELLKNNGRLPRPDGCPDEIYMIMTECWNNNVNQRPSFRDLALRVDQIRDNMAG

- IC50 [1]: < 10 nM
- JAK2/JAK1 [2]: >10
Structure (SMILES): N#CCC1(n2cc(-c3ncnc4[nH]ccc34)cn2)CN(C2CCN(C(=O)c3ccnc(C(F)(F)F)c3F)CC2)C1 [Compound 1, {1-{1-[3-Fluoro-2-(trifluoromethyl)isonicotinoyl]piperidin-4-yl}-3-[4-(7H-pyrrolo[2,3-d]pyrimidin-4-yl)-1H-pyrazol-1-yl]azetidin-3-yl}acetonitrile]
- IL-6 concentrations within the blood compartment [3]: dose-dependently inhibited
- IL-6 concentrations within the blood compartment ([4]; 60 and 120 mg/kg PO 60 min before Con A (20 mg/kg IV), FIG. 2A): dose-dependently inhibited
- IFNγ (T-cell derived cytokine) ([4]; 60 and 120 mg/kg PO before Con A, FIG. 2B): significantly inhibited
- GM-CSF (T-cell derived cytokine) ([4]; 60 and 120 mg/kg PO before Con A, FIG. 2C): significantly inhibited
- IL-12 (monocyte and/or macrophage derived cytokine) ([4]; 60 and 120 mg/kg PO before Con A, FIG. 3A): Statistically significant dose-dependent IL-12 reduction
- IL-1β (monocyte and/or macrophage derived cytokine) ([4]; 60 and 120 mg/kg PO before Con A, FIG. 3B): trends for treatment effect
- IL-18 (monocyte and/or macrophage derived cytokine) ([4]; 60 and 120 mg/kg PO before Con A, FIG. 3C): trends for treatment effect
- IL-5 ([4]; 60 and 120 mg/kg PO before Con A, FIG. 4): unaffected
